The results in this text go back to patent US20070155771A1, “Methods and means for treating protein conformational disorders” (priority 2003, published 2007).

The test system of the test is Drosophila HD model expressing the first 171 residues of huntingtin with 120 glutamines (120Q) in photoreceptors. The test is described as follows: Drosophila HD model, pseudopupil analysis of photoreceptor neurodegeneration. In kind it is in vivo. How it is done: A Drosophila line y; w; gmr-Q120 was crossed to w; iso2; iso3 to obtain progeny heterozygous for the transgene gmr-Q120. Flies were allowed to mate on normal food for 2-3 days and then transferred to food containing 1 μM rapamycin (Sigma) or DMSO. After eclosion, flies were placed on food containing 1 μM rapamycin or DMSO. Flies were transferred to newly prepared food every day.
Pseudopupil analysis: Adult male flies were decapitated and the head was mounted onto a microscope slide using nail polish. Analysis was performed with an optical microscope using a 60× objective with the observer blinded to the identity of the slides. Approximately 75 ommatidia were evaluated for each group (approx. 15 ommatidia in 5 individuals). Each experiment was done twice. The frequency of ommatidia with different numbers of visible rhabdomeres was based on all visible photoreceptor neurons, irrespective of their shape or brightness. Flies were raised at 25° C. with 12/12-h light/dark-cycle, 70% humidity.
A Drosophila HD model that expresses the first 171 residues of huntingtin with 120 glutamines (120Q) in photoreceptors (Jackson, G. R., et al. Neuron 21, 633-642 (1998)) was used to test whether long-term mTOR inhibition with rapamycin would have beneficial effects in vivo. The mutant flies show photoreceptor neurodegeneration, a phenotype that is easily quantifiable using the pseudopupil technique (Franceschini, N. & Kirschfeld K. Kybernetik 9, 159-182 (1971)). No degeneration is seen in flies expressing analogous constructs with 20Q (wild-type transgenics). The compound eye of Drosophila comprises many ommatidia. An ommatidium normally contains eight photoreceptor neurons with light gathering parts called rhabdomeres, seven of which can be easily visualized using the pseudopupil technique. The number of visible rhabdomeres in each ommatidium decreases as a function of time when there is photoreceptor neurodegeneration, like in the 120Q fly lines.

As to rapamycin, the 120Q-induced photoreceptor degeneration entry (1 μM rapamycin in food from larval stage into adulthood, vs DMSO) is “dramatically rescued”. Further, the “number of visible rhabdomeres per ommatidium” value (1 μM rapamycin in food, two and three days after eclosion, p<0.0001) is “significantly increased”. Also, the “frequency of ommatidia with seven rhabdomeres” value (HD 120Q flies, 2 and 3 days post-eclosion) was “dramatically increases”.
